Test results: patent US20070099232A1, “Ecdysone receptor ligand-binding domain structure” (priority 2003, published 2007)

Experiments:
[1] = tested on: BtEcR; test: BtEcR competitive binding assay with [3H]-ponasterone A as tracer; set-up: species or system Bemisia tabaci
Description: As will be readily understood by persons skilled in this field, the methods of the present invention provide a rational method for designing and selecting compounds which interact with an ecdysone receptor and specifically that of B. tabaci. In the majority of cases these compounds will require further development in order to increase activity. Such further development is routine in this field and will be assisted by the structural information provided in this application and screens employing EcR and optionally USP nucleotide and/or polypeptide sequences. In vitro competitive binding screens compete unlabelled test compounds against a labelled ligand (tracer) to observe if they inhibit the binding of the latter to functional receptor LBDs. In vitro competition binding screens may utilise LBD sequences or D (linker) domain sequences linked to LBD sequences. In vivo cell-based screens employ full-length EcR and optionally full-length USP nucleotide sequences functionally linked to suitable promoters for expression in mammalian, insect or yeast cells containing a suitable reporter gene construct. Alternatively, in vivo cell-based screens may employ the EF or DEF domain encoding regions of EcR and optionally of USP nucleotide sequences functionally linked to nucleotide sequences encoding domains from other transcription factors. In particular, the BtEcR nucleotide sequence (SEQ ID NO 1) and/or polypeptide sequence (SEQ ID NO 2) and optionally BtUSP nucleotide sequence and/or polypeptide sequence or the corresponding EF or DEF domains may be utilised in screens to develop improved compounds derived by rational design employing the B. tabaci EcR/USP crystal structure. It is intended that in particular embodiments the methods of the present invention includes such further developmental steps.
Biological assays to measure the activity of ecdysone receptor agonists and antagonists are well known in the field. Traditional screens for ecdysone receptor agonists examine candidate compounds for an ability to induce the moulting or pupation of whole insect larvae (Becker, 1941; Cymborowski, 1989), the evagination of imaginal discs (Fristrom J. W. & Yund, 1976) or morphological transformation of the Drosophila BII cell line (Clément et al., 1993). More recent assays use mammalian or other eukaryotic cells that have been co-transfected with a recombinant ecdysone receptor and a reporter gene linked to an appropriate response element Both types of screen can also be reformatted to detect non-agonist ligands (antagonists), which can be recognised by their ability to inhibit the activation the receptor by an agonist provided as a standard component of the assay (Yang et al., 1986; Oberdorster et al., 2001)(Oberdorster et al, 2001). […] In addition, potential agonists and antagonists may be screened for their ability to inhibit the binding of europium-labelled ecdysone receptor ligands to soluble, recombinant ecdysone receptor in a microplate-based format Europium is a lanthanide fluorophore, the presence of which can be measured using time-resolved fluorometry. […] Binding affinity and inhibitor potency may also be measured for candidate inhibitors using biosensor technology. […]

[2] = tested on: Lepidotera versus Diptera; conditions: selectivity at the level of insect orders; cited from earlier work
[3] = target: T1, dipteran (Lucilia cuprina) receptor (Lucilia cuprina, UniProt O18531); test: In vitro binding studies employing purified recombinant LBDs (dipteran receptor); conditions: unpublished results
T1 construct: made in house
T1 sequence (O18531 442-677 limits assumed): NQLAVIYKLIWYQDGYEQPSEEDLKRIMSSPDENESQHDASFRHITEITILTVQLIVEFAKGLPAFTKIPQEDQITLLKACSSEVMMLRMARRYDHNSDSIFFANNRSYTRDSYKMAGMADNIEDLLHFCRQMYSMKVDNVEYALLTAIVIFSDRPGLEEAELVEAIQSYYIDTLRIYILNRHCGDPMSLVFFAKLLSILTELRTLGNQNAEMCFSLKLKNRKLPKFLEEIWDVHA
Description: (§1) Table 3 presents the inter-order variation apparent across a variety of Insecta EcR LBDs for those residues that line the ecdysteroid binding pocket observed in the B. tabaci structure. […] For example, in the hemipteran B. tabaci (resistant to the bisacylhydrazine compounds) residue 272 is methionine, whereas in lepidopteran species (susceptible to bisacylhydrazines) the residue at this position is a smaller valine. Attention has also been drawn to the potential importance of the residue at this position in relation to the control spectrum of bisacylhydrazine insecticides in the communication by Billas et al. (2003) reporting the crystal structure of the lepidopteran Heliothis virescens EcR/USP heterodimeric LBD. It is apparent from Table 3 of the present application that the methionine at position 272 is present in the Hemiptera, Diptera, Orthoptera and Coleoptera while the residue in this position of the Lepidoptera is valine. […] Clearly the response to bisacylhydrazines is not simply dependent on the residue at the position corresponding to 272 in B. tabaci.

[4] = tested on: whitefly (B. tabaci) receptor; test: In vitro binding studies employing purified recombinant LBDs (whitefly receptor); set-up: species or system Bemisia tabaci; conditions: unpublished results
Description: as §1

[5] = tested on: Choristoneura fumiferana EcR A110P; conditions: single point mutation A110P; cited from earlier work
[6] = target: recombinant B. tabaci receptor LBD (BtEcR/BtUSP heterodimer); test: Equilibrium binding studies with [3H]-ponasterone A as ligand; set-up: species or system Bemisia tabaci; conditions: by direct curve fitting, recombinant heterodimeric LBD
Method: Pilot-scale expression of recombinant heterodimeric BtEcR-BtUSP LBD was achieved by infection of suspension cultures of Sf9, Sf21 and or Hi-5 insect cells in spinner flasks or Schott bottles on a shaker platform maintained at 27° C. Insect cells infected with the virus engineered to express BtEcR/BtUSP ligand-binding domain were shown by gel electrophoresis to contain the expressed polypeptides corresponding to the two tagged domains.

[7] = tested on: BtEcR/BtUSP heterodimer binding to EcRE DNA; test: Electrophoretic mobility shift assay (EMSA) of receptor binding to EcRE (hsp27 response element); format: biochemical, Bemisia tabaci; conditions: in the presence of 5mM MgCl2; compared to binding without hormone
Method: DNA binding function was assessed by electrophoretic mobility shift assay (EMSA). For these experiments, EcR and USP proteins were translated as above but using unlabelled methionine. The EcRE probe (hsp27 response element) was prepared by α-^32P labelling 5 pmol of annealed oligo (5′[…]3′ and 5′[…]3′) with Klenow ([…] Labelling Kit, Geneworks). This mix was then phenol/chloroform extracted, ethanol precipitated and resuspended in 100 μl of TE. Binding and electrophoresis were performed as described by (Molloy, 2000). For a 20 μl reaction mix, 2.5 μl of each translated extract was incubated with 8.0 μl of BufferA (20 mM HEPES pH 7.9, 100 mM KCI, 2 mM dithiothreitol (DTT), 1 mM EDTA, 20% (v/v) glycerol), 2 μl of 2% (v/v) NP-40, 1 μl BSA (10 mg/ml), 0.5 μl 2 mg/ml poly (dI-dC).poly(dI-dC), 6 μg single stranded DNA plus or minus 1 μl of 100 mM MgCl2. After 20 minutes at room temperature, 0.05 pmoles of labelled probe was added and the mix was incubated again for 20 minutes. One sample also had the addition of excess (1.25 pmoles) unlabelled EcRE DNA. 10 μl of the mix was analysed by electrophoresis at 4° C., 80 V in a 0.25×TBE, 5% polyacrylamide gel. After fixing and drying, radioactive species were visualized by the Molecular Dynamics Phosphorimaging system. […]

CC(C)(C)N(NC(=O)c1ccccc1)C(=O)c1ccccc1 [compound I]
binding in BtEcR competitive binding assay [1]: negligible binding

CCc1ccc(C(=O)NN(C(=O)c2cc(C)cc(C)c2)C(C)(C)C)cc1 [RH5992]
binding in BtEcR competitive binding assay [1]: negligible binding
effectiveness against Lepidotera relative to Diptera [2]: two to three orders of magnitude more effective
affinity of receptor for compound [3]: significant affinity
affinity of receptor for compound [4]: only very low affinity

CCc1c(OC)cccc1C(=O)NN(C(=O)c1cc(C)cc(C)c1)C(C)(C)C [RG-102240]
effect of A110P point mutation on response of receptor to ligand [5]: without affecting response

O=C(CSC1NCCN1)c1ccccc1 [IV]
binding in BtEcR competitive binding assay [1]: weak-moderate binding

CC(C)(C)C(=O)N1N=C(c2ccccc2)OC1(C)c1ccc(F)cc1 (centres unmarked) [compound II]
binding in BtEcR competitive binding assay [1]: negligible binding

O=C1OC(c2cccs2)=N/C1=C/c1ccccc1 [compound III]
binding in BtEcR competitive binding assay [1]: weak-moderate binding

CC(C)CC[C@@H](O)[C@](C)(O)[C@H]1CC[C@@]2(O)C3=CC(=O)[C@@H]4C[C@@H](O)[C@@H](O)C[C@]4(C)[C@H]3CC[C@]12C [ponasterone A]
Kd [6]: 1.21 ± 0.17 nM
effect of hormone on binding of receptor heterodimer to EcRE [7]: clearly enhanced binding
